The record followed here is PubChem BioAssay (NCI).

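Cells were grown in 96-well plates and exposed to each compound for 48 hours at five concentrations; endpoints were interpolated linearly between bracketing concentrations, or set to the highest concentration if not reached. The concentration for full growth arrest is given as TGI.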

Some test systems named below: HOP-62 NSCLC; UO-31 renal; IGROV1 ovarian; DMS 114 small cell lung; KM20L2 colon; CAKI-1 renal; M19-MEL melanoma; EKVX NSCLC; DLD-1 colon; DMS 273 small cell lung; SF-295 CNS; XF 498 CNS; MCF7 breast.
What all share (test): growth of human tumour cells (NCI), 48 h

As for `COc1cc2c(c(OC)c1OC)-c1ccc(SC)c(=O)cc1[C@@H](NCc1ccc(C#N)cc1)CC2`, the TGI in the assay on HOP-62 NSCLC is greater than 100 µM; in the assay on UO-31 renal, greater than 100 µM; in the assay on IGROV1 ovarian it was greater than 100 µM; with DMS 114 small cell lung it was 0.00534 µM; in the assay on KM20L2 colon it was 0.00388 µM; in the assay with CAKI-1 renal, greater than 100 µM. Further, the TGI with M19-MEL melanoma and with EKVX NSCLC was greater than 100 µM each time.

As to `Clc1ccc(SC(/C=C/NNC2=NC(c3ccccc3)C(c3ccccc3)=NN2)c2ccccc2)cc1` (stereo unspecified), the TGI is greater than 100 µM in the assay on DLD-1 colon; greater than 100 µM with HOP-62 NSCLC; greater than 100 µM with DMS 273 small cell lung; 89.6 µM in the assay on SF-295 CNS; 38.8 µM in the assay with UO-31 renal; 54.6 µM with XF 498 CNS. In addition, the TGI was greater than 100 µM in the assay on IGROV1 ovarian; 75.6 µM with DMS 114 small cell lung; 53.7 µM with KM20L2 colon; 54.1 µM in the assay with CAKI-1 renal; 99.4 µM in the assay on M19-MEL melanoma; greater than 100 µM in the assay with EKVX NSCLC.

As to `CC[C@]12C=CCN3CC[C@@]4(c5cc(Br)c(OC)cc5N(C)[C@H]4[C@@](O)(C(=O)NN)[C@@H]1O)[C@@H]32`, the TGI with HOP-62 NSCLC, in the assay with SF-295 CNS, with UO-31 renal, in the assay with IGROV1 ovarian, in the assay with MCF7 breast and in the assay on CAKI-1 renal was greater than 100 µM in each case. Further, in the assay with EKVX NSCLC, the TGI is greater than 100 µM.

With `Cc1ccc(S(=O)(=O)N/N=C(\c2nc3ccc(Cl)cc3[nH]c2=O)C(O)c2cccc([N+](=O)[O-])c2)cc1` (stereo unspecified), the TGI in the assay with DLD-1 colon, in the assay with HOP-62 NSCLC, in the assay on DMS 273 small cell lung, in the assay on SF-295 CNS, in the assay on UO-31 renal and with XF 498 CNS was greater than 100 µM each time. For the same molecule, the TGI in the assay with IGROV1 ovarian, in the assay with DMS 114 small cell lung, in the assay with KM20L2 colon, with CAKI-1 renal, in the assay with M19-MEL melanoma and in the assay on EKVX NSCLC was greater than 100 µM in each case.

Regarding `CN(C)c1ccc(C(=C(c2ccc(N(C)C)cc2)c2ccc(N(C)C)cc2)c2ccc(N(C)C)cc2)cc1`, the TGI in the assay with DLD-1 colon is 41.5 µM; with HOP-62 NSCLC, greater than 100 µM; with DMS 273 small cell lung, 38.9 µM; with SF-295 CNS it was 27.8 µM; in the assay with UO-31 renal, 39.9 µM; with IGROV1 ovarian, 34 µM. In addition, the TGI with DMS 114 small cell lung is 49.3 µM; with KM20L2 colon it was 42.4 µM; with CAKI-1 renal, 28 µM; in the assay on M19-MEL melanoma it was 70.9 µM; in the assay with EKVX NSCLC it was 34.4 µM.

Regarding `Cc1ccsc1/C=N/Nc1nc2ccccc2s1`, the TGI was 22.4 µM with HOP-62 NSCLC; 23.8 µM in the assay on SF-295 CNS; greater than 100 µM in the assay on UO-31 renal; 23.5 µM in the assay with IGROV1 ovarian; 36 µM in the assay on MCF7 breast; 36.1 µM with CAKI-1 renal. Moreover, the TGI in the assay on EKVX NSCLC came out at 41.9 µM.

Regarding `CCCCc1ccc(Nc2nc3c(ncn3C3CC(O)C(CN=[N+]=[N-])O3)c(=O)[nH]2)cc1` (stereo unspecified), the TGI in the assay on HOP-62 NSCLC, in the assay on SF-295 CNS, in the assay with UO-31 renal, with IGROV1 ovarian, with MCF7 breast and with CAKI-1 renal was greater than 100 µM throughout. The TGI with EKVX NSCLC is greater than 100 µM.

Consider `CCOC(=O)c1ccc(Nc2c3c(nc4ccccc24)CCCC3)cc1`, for which the TGI with HOP-62 NSCLC was greater than 83.9 µM; with SF-295 CNS, greater than 100 µM; with UO-31 renal, greater than 100 µM; in the assay with IGROV1 ovarian, greater than 100 µM; in the assay with MCF7 breast, greater than 100 µM; with CAKI-1 renal, greater than 100 µM. In the assay with EKVX NSCLC, this molecule showed a TGI greater than 100 µM.

Turning to `O=C1c2ccc(O)cc2C(=O)c2ccc(O)cc21`, the TGI with DLD-1 colon is greater than 100 µM; in the assay on HOP-62 NSCLC, greater than 100 µM; in the assay with DMS 273 small cell lung, greater than 100 µM; with SF-295 CNS, greater than 100 µM; in the assay with UO-31 renal, 73.2 µM; in the assay with XF 498 CNS it was greater than 100 µM. The TGI with IGROV1 ovarian, in the assay on DMS 114 small cell lung, in the assay with CAKI-1 renal, in the assay on M19-MEL melanoma and in the assay on EKVX NSCLC was greater than 100 µM each time.

Consider `CCOC(=O)C1=CNC(C(=O)OCC)C1c1cccn1-c1ccc(Cl)cc1[N+](=O)[O-]` (stereo unspecified), for which the TGI in the assay on HOP-62 NSCLC was 53.6 µM; in the assay on SF-295 CNS it was 31.3 µM; in the assay on UO-31 renal it was greater than 100 µM; with IGROV1 ovarian, 29.9 µM; in the assay with MCF7 breast, 60.6 µM; in the assay on CAKI-1 renal, 58.6 µM. In the assay with EKVX NSCLC, this molecule had a TGI of 75.9 µM.

As for `S=C(NC1=NCC(CN2CCN(c3ccccc3)CC2)O1)Nc1ccccc1` (stereo unspecified), the TGI is greater than 100 µM with HOP-62 NSCLC; greater than 100 µM in the assay on SF-295 CNS; 97.5 µM in the assay on UO-31 renal; greater than 100 µM in the assay on IGROV1 ovarian; greater than 100 µM in the assay on MCF7 breast; greater than 100 µM with CAKI-1 renal. For the same molecule, the TGI in the assay on EKVX NSCLC is greater than 100 µM.

Consider `CC(C)(C)N=NNc1cn(C2OC(CO)C(O)C2O)c(=O)[nH]c1=O` (stereo unspecified), for which the TGI with DLD-1 colon, in the assay with HOP-62 NSCLC, in the assay with DMS 273 small cell lung, in the assay with SF-295 CNS, with UO-31 renal and in the assay with IGROV1 ovarian was greater than 100 µM throughout. For the same molecule, the TGI with DMS 114 small cell lung, in the assay with KM20L2 colon, in the assay on CAKI-1 renal, with M19-MEL melanoma and in the assay on EKVX NSCLC was greater than 100 µM each time.

`Cn1c(=O)c(C(=O)Nc2nc(C34CC5CC(CC(C5)C3)C4)cs2)c(O)c2ccccc21`: the TGI in the assay with HOP-62 NSCLC is 36.2 µM; in the assay on SF-295 CNS, greater than 100 µM; with UO-31 renal it was greater than 100 µM; in the assay with IGROV1 ovarian, greater than 100 µM; in the assay with MCF7 breast, greater than 100 µM; in the assay on CAKI-1 renal, greater than 100 µM. Besides, the TGI with EKVX NSCLC is greater than 100 µM.

In the case of `COc1ccc2nc3c([N+](=O)[O-])ccc4c3c(c2c1)NCCN4CCO`, the TGI with HOP-62 NSCLC turned out to be 2.28 µM; in the assay with SF-295 CNS, 1.71 µM; with UO-31 renal it was 1.47 µM; in the assay with IGROV1 ovarian, 3.22 µM; in the assay with MCF7 breast, 3.19 µM; in the assay with CAKI-1 renal, 3.06 µM. Besides, in the assay on EKVX NSCLC, the TGI worked out at 2.97 µM.
